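Cultured in 96-well plates, cells were exposed to test compound for 48 hours across five concentrations. GI50 is the concentration that inhibits growth by half.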 Active and inactive are the calls of the source. Rule as the data show it: active = GI50 up to about 1.1 µM and inactive = higher. Some results are limits rather than exact numbers.

This is an account of results in ChEMBL document CHEMBL1201862, “PubChem BioAssay data set” (2004).

Among the test systems are MOLT-4; HCC 2998; COLO 205; SNB-75; NCI-H23; HOP-92; HT-29; OVCAR-5; K562; SF-295; OVCAR-4; UACC-257; UACC-62; HCT-15.
What all share (assay): DTP human tumour cell line panel, 48 h

The term GI50 denotes the concentration that inhibits growth by half. Take `CC1=C(C(=O)Nc2cc(=O)n(C)c(=O)n2C)C(c2ccco2)C(C(=O)Nc2cc(=O)n(C)c(=O)n2C)=C(C)N1`: the GI50 was > 100 µM (inactive) with MOLT-4; > 100 µM (inactive) with HCC 2998; > 100 µM (inactive) in the assay with COLO 205; 44.8 µM (inactive) with SNB-75; > 100 µM (inactive) in the assay on NCI-H23; 48.5 µM (inactive) with HOP-92. Besides, the GI50 in the assay on HT-29, in the assay on OVCAR-5, with K562, in the assay with SF-295, with OVCAR-4 and in the assay with UACC-257 was > 100 µM (inactive) throughout.
As for `COc1cc2c(c(OC)c1)C1(CC(CC#N)C2)SCCS1` (stereo unspecified), the GI50 with UACC-62 is > 100 µM (inactive); in the assay with MOLT-4, > 100 µM (inactive); in the assay with HCC 2998, > 100 µM (inactive); in the assay with HCT-15, greater than 100 µM; with COLO 205 it was > 100 µM (inactive); in the assay with SNB-75, 56.9 µM (inactive). Besides, the GI50 in the assay on K562, in the assay on OVCAR-4 and in the assay with UACC-257 was > 100 µM (inactive) in each case.
On to `O=C(c1ccccn1)c1nc(-c2ccc(Cl)c(Cl)c2)nc2ccc(Cl)cc12`, for which the GI50 in the assay on UACC-62 is 39.2 µM (inactive); with MOLT-4 it was 58.6 µM (inactive); in the assay on HCC 2998 it was > 100 µM (inactive); in the assay with HCT-15, 39.2 µM; with SNB-75, 12.3 µM (inactive); in the assay with NCI-H23, 20.3 µM (inactive). Further, the GI50 was > 100 µM (inactive) with HT-29; > 100 µM (inactive) in the assay with OVCAR-5; 92 µM (inactive) in the assay on K562; 31.1 µM (inactive) in the assay on SF-295; 40.2 µM (inactive) in the assay on OVCAR-4; > 100 µM (inactive) with UACC-257.
For the compound `CN(C)C(=S)/N=c1\ss/c(=N\C(=S)N(C)C)n1-c1ccc(Cl)c(Cl)c1`, the GI50 in the assay with UACC-62 is 30.9 µM (inactive); in the assay on MOLT-4 it was > 100 µM (inactive); with HCC 2998, > 100 µM (inactive); with HCT-15, greater than 100 µM; in the assay on COLO 205, > 100 µM (inactive); in the assay on SNB-75, 27.1 µM (inactive). Besides, the GI50 with NCI-H23, in the assay on HT-29, in the assay with OVCAR-5, in the assay with K562, with SF-295 and in the assay on OVCAR-4 was > 100 µM (inactive) each time. The GI50 in the assay on UACC-257 was > 100 µM (inactive).
Consider `COc1cc2c(cc1OC)C(C(=O)c1cccc(OC)c1OC)C(=O)N(C)CC2` (stereo unspecified), for which the GI50 was > 100 µM (inactive) with UACC-62; > 100 µM (inactive) in the assay with MOLT-4; greater than 100 µM in the assay with HCT-15; > 100 µM (inactive) with COLO 205; > 100 µM (inactive) with SNB-75; > 100 µM (inactive) with NCI-H23. Moreover, the GI50 is 65.5 µM (inactive) in the assay on HOP-92; > 100 µM (inactive) in the assay with HT-29; > 100 µM (inactive) in the assay on K562; > 100 µM (inactive) in the assay on OVCAR-4; > 100 µM (inactive) in the assay with UACC-257.
As to `COC(=O)/C=C/C1C2C3(CCC(C)C12C)OCCS3` (stereo unspecified), the GI50 is 40.6 µM (inactive) in the assay with MOLT-4; > 100 µM (inactive) with HCC 2998; greater than 100 µM in the assay with HCT-15; > 100 µM (inactive) in the assay on COLO 205; > 100 µM (inactive) in the assay on SNB-75; > 100 µM (inactive) in the assay on NCI-H23. In addition, the GI50 with HOP-92, in the assay on HT-29, in the assay on OVCAR-5, in the assay on K562, in the assay on SF-295 and in the assay on OVCAR-4 was > 100 µM (inactive) in each case. In addition, the GI50 with UACC-257 was > 100 µM (inactive).
As to `Nc1ccn([C@@H]2C[C@H](CO)[C@@H](O)[C@H]2O)c(=O)n1`, the GI50 in the assay with UACC-62 is > 57.7 µM (inactive); in the assay with MOLT-4 it was > 57.7 µM (inactive); with HCC 2998, > 57.7 µM (inactive); in the assay on HCT-15, greater than 57.7 µM; with COLO 205, > 57.7 µM (inactive); with SNB-75 it was > 57.7 µM (inactive). For the same compound, the GI50 in the assay on K562, in the assay with OVCAR-4 and in the assay on UACC-257 was > 57.7 µM (inactive) in each case.
As to `COc1ccc(OC)c2[s+]snc12`, the GI50 is 26.6 µM (inactive) in the assay on UACC-62; 70.8 µM (inactive) in the assay on MOLT-4; > 100 µM (inactive) in the assay with HCC 2998; > 100 µM (inactive) in the assay with COLO 205; 93.5 µM (inactive) with SNB-75; 75.2 µM (inactive) with NCI-H23. Moreover, the GI50 is > 100 µM (inactive) with HT-29; > 100 µM (inactive) in the assay on OVCAR-5; 34.5 µM (inactive) in the assay with K562; 55.7 µM (inactive) in the assay with SF-295; 60.4 µM (inactive) in the assay with OVCAR-4; 27.1 µM (inactive) in the assay with UACC-257.
With `COc1ccc(C2CC(=O)c3c(O)cc(O)cc3O2)cc1O` (stereo unspecified), the GI50 in the assay with UACC-62 is > 100 µM (inactive); in the assay with MOLT-4 it was > 100 µM (inactive); with HCC 2998, > 100 µM (inactive); in the assay with HCT-15, greater than 100 µM; in the assay on COLO 205, > 100 µM (inactive); in the assay with SNB-75, 53.8 µM (inactive). The GI50 in the assay on NCI-H23 was > 100 µM (inactive); in the assay with HT-29 it was > 100 µM (inactive); in the assay with OVCAR-5, > 100 µM (inactive); in the assay with K562, 28.8 µM (inactive); in the assay on SF-295, > 100 µM (inactive); in the assay on OVCAR-4, 65.2 µM (inactive). Further, the GI50 in the assay with UACC-257 was > 100 µM (inactive).
Consider `COc1ccc2c(c1)CCc1c-2nc2cc3c(cc2c1O)OCO3`, for which the GI50 in the assay with UACC-62 was > 100 µM (inactive); in the assay with MOLT-4 it was > 100 µM (inactive); in the assay on HCC 2998 it was > 100 µM (inactive); in the assay with HCT-15, greater than 100 µM; in the assay with COLO 205, > 100 µM (inactive); with SNB-75, > 100 µM (inactive). The GI50 in the assay on NCI-H23, with HOP-92, in the assay with HT-29, in the assay with K562, with SF-295 and in the assay on OVCAR-4 was > 100 µM (inactive) in each case.
Consider `CC1CCSC(N(C(=O)N(C)c2ccccc2)c2ccccc2)=N1` (stereo unspecified), for which the GI50 with UACC-62 was > 100 µM (inactive); in the assay with MOLT-4 it was > 100 µM (inactive); in the assay on HCC 2998, > 100 µM (inactive); in the assay on HCT-15, greater than 100 µM; in the assay with COLO 205, > 100 µM (inactive); with SNB-75, > 100 µM (inactive). Moreover, the GI50 in the assay on NCI-H23, with HT-29, in the assay with OVCAR-5, in the assay on K562, in the assay on SF-295 and in the assay on UACC-257 was > 100 µM (inactive) each time.
Take `O=C(NC12CC3CCC1CC(C3)C2)[C@@H]1CCCN1C(=O)OCc1ccccc1` (stereo partly specified): the GI50 in the assay with UACC-62 was 83.6 µM (inactive); in the assay with MOLT-4 it was 30.1 µM (inactive); in the assay with HCC 2998, 85.9 µM (inactive); in the assay on HCT-15 it was 44.2 µM; in the assay on COLO 205, 33.5 µM (inactive); with SNB-75, 26.7 µM (inactive). The GI50 is 43.3 µM (inactive) in the assay with NCI-H23; 18.6 µM (inactive) with HOP-92; 36.5 µM (inactive) in the assay with HT-29; > 100 µM (inactive) in the assay on OVCAR-5; 33.7 µM (inactive) in the assay on K562; 36.1 µM (inactive) in the assay on SF-295. Besides, the GI50 in the assay with UACC-257 was 34.7 µM (inactive).
